Broadly, the Kd is the constant that tells how readily two partners part at equilibrium. A word on the IC50: it is the concentration needed to halve the response being measured.

The results in this text go back to US7166726B2, “Aryl substituted 3,4-dihydroanthracene derivatives having retinoid antagonist or retinoid inverse agonist type biological activity” (Allergan, Inc., priority 1996, dated 2007).

One test deals with T1, RARβ (Homo sapiens, UniProt P10826).
T1 sequence (P10826 1-455): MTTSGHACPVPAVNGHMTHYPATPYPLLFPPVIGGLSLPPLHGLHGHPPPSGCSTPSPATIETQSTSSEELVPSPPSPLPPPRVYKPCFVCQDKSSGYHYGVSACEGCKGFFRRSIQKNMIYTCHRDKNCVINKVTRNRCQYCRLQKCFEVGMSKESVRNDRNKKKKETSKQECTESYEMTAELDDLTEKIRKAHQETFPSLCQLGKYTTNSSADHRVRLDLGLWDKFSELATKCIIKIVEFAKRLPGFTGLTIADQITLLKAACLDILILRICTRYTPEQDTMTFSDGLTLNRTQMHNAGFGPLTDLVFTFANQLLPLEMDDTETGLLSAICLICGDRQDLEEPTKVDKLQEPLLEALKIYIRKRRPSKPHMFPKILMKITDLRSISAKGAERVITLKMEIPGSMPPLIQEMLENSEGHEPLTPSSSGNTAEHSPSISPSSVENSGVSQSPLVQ
Put plainly: Ligand binding assay, RARβ. The source says:
(§1) A holoreceptor transactivation assay and a ligand binding assay which measure the antagonist/agonist like activity of the compounds of the invention, or their ability to bind to the several retinoid receptor subtypes, respectively, are described in published PCT Application No. WO WO93/11755 (particularly on pages 30–33 and 37–41) published on Jun. 24, 1993, the specification of which is also incorporated herein by reference. A description of the holoreceptor transactivation assay is also provided below.
(§2) CV1 cells (5,000 cells/well) were transfected with an RAR reporter plasmid MTV-TREp-LUC (50 ng) along with one of the RAR expression vectors (10 ng) in an automated 96-well format by the calcium phosphate procedure of Heyman et al. Cell 68, 397–406, (1992). For RXRα and RXRγ transactivation assays, an RXR-responsive reporter plasmid CRBPII-tk-LUC (50 ng) along with the appropriate RXR expression vectors (10 ng) was used substantially as described by Heyman et al. above, and Allegretto et al. J. Biol. Chem. 268, 26625–26633. For RXRβ transactivation assays, an RXR-responsive reporter plasmid CPRE-tk-LUC ([…]) along with RXRβ expression vector ([…]) was used as described in above. These reporters contain DRI elements from human CRBPII and certain DRI elements from promoter, respectively. […]

The target of a further test is T2, RARγ (Homo sapiens, UniProt P13631).
T2 sequence (P13631 1-454): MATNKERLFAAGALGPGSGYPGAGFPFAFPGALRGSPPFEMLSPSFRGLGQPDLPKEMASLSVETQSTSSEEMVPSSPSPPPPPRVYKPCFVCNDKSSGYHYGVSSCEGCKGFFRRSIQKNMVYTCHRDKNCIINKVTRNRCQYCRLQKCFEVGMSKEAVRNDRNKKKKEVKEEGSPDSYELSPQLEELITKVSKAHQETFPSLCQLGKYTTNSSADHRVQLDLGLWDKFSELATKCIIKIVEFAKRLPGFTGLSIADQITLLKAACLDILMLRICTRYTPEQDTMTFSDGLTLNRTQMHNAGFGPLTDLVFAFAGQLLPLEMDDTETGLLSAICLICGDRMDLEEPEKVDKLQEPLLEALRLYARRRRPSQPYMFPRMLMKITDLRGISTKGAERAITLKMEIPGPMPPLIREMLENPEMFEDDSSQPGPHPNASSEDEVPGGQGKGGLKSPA
Put plainly: Ligand binding assay, RARγ. As to conditions: read-out: Kd TATγ.
Source text: as §1, §2

For another test, the target named is T3, RARα (Homo sapiens, UniProt P10276).
T3 sequence (P10276 1-462): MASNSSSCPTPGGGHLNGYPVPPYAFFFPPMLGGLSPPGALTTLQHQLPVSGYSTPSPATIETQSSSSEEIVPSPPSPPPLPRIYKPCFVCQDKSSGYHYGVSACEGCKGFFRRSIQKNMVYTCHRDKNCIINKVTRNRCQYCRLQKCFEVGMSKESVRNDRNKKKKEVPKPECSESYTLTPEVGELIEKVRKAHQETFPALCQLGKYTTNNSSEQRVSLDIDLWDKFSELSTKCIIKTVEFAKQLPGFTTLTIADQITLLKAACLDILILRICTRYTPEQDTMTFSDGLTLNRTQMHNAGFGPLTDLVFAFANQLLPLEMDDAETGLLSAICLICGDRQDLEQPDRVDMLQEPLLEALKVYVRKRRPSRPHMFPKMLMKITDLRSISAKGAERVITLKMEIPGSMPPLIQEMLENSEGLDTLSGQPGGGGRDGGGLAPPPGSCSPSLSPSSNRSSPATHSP
Put plainly: Ligand binding assay, RARα.
Source text: as §1, §2

The test system of test [1] is RARγ-VP-16 chimeric receptor. Put plainly: Retinoid inverse agonist assay: repression of basal luciferase activity of RARγ-VP-16 chimeric receptor in CV-1 cells. Type of test: cell-based. The following applies: CV-1 cells cotransfected with RARγ-VP-16, ER-RXRα chimeric receptor and ERE-tk-Luc reporter; read-out: IC50, inhibition of basal luciferase activity. From the text:
The activity of retinoid inverse agonists can be tested by the procedure of Klein et al. J. Biol. Chem. 271, 22692–22696 (1996) which is expressly incorporated herein by reference.
In this assay, retinoid inverse agonists are able to repress the basal activity of a RARγ-VP-16 chimeric receptor where the constituitively active domain of the herpes simplex virus (HSV) VP-16 is fused to the N-terminus of RARγ. CV-1 cells are cotransfected with RARγ-VP-16, an ER-RXRα chimeric receptor and an ERE-tk-Luc chimeric reporter gene to produce a basal level of luciferase activity, as shown by Nagpal et al. EMBO J. 12, 2349–2360 (1933) expressly incorporated herein by reference. Retinoid inverse agonists are able to inhibit the basal luciferase activity in these cells in a dose dependent manner and IC50s measured.

For the molecule `Cc1ccc(C2=CCC(C)(C)c3cc4cccc(-c5ccc(C(=O)O)cc5)c4cc32)cc1` [Compound 2, 4-[1(Tol-4-yl)-3,4-dihydro-4,4-dimethyl-anthracen-8-yl]-benzoic acid], the dissociation constant Kd at RARβ is 4 nM; at RARγ, 7 nM; at RARα, 13 nM. The IC50 in test [1] was 1 nM.
In the case of `Cc1ccc(C2=CC(C)(C)Oc3cc4ccc(-c5ccc(C(=O)O)cc5)cc4cc32)s1` [Compound 12, 4-[2,2-Dimethyl-4-(5-methyl-thien-2-yl)-benzo[1,2-g]-chrom-3-en-7-yl]benzoic acid], the Kd at RARβ came out at 12 nM; on RARγ, 33 nM; at RARα, 17 nM.
